Measurements reported in patent US20240268388A1, “AGRICULTURAL AND HORTICULTURAL FUNGICIDAL COMPOSITION” (NIPPON SODA CO., LTD., priority 2021, published 2024).
Read-outs that look alike come from different tables or passages of the source.

Assays:
[1] = tested on: soybean rust pathogen (Phakopsora pachyrhizi); assay: Soybean rust control test (leaf discs); format: in vivo
Protocol: Compounds of component (I) and component (II) were dissolved in dimethyl sulfoxide and diluted with water to the prescribed concentration to prepare a chemical agent solution. A mixture of the prescribed concentration of the chemical agent solution and sterile water was prepared on a microplate, and leaf discs cut from soybean leaves were floated on the microplate. Uredospores of soybean rust pathogen (Phakopsora pachyrhizi) were inoculated and incubated at 25° C. for 9 days. The area percentage of lesions was determined by observing uredospore-forming lesions on the leaf discs, and the control value was calculated. The control value was calculated by the following formula:
Control value (%)=100−{Area percentage of lesions in treatment plot/Area percentage of lesions in untreatment plot}×100.
The results are shown in Tables 8 to 18, along with the expected values calculated as below. Each expected values was calculated from the fungicidal efficacy of a single application of compound of component (I) and the fungicidal efficacy of a single application of compound of component (II) by using Colby's equation:
[formula] • where E represents the expected value of the control value for the composition containing component (I) and component (II), M represents the control value (%) when the component (I) is used alone, and N represents the control value (%) when the component (II) is used alone. When the measured control value for the composition containing component (I) and component (II) is greater than the expected value E, the composition containing component (I) and composition (II) should exert a synergistic effect.

[2] = tested on: cucumber anthracnose pathogen (Colletotrichum lagenarium); assay: Fungicidal test for cucumber anthracnose (microplate, turbidity at 405 nm); format: cell-based; settings: for inhibition at 0.025 ppm / inhibition at 0.1 ppm / inhibition at 0.4 ppm: Colletotrichum orbiculare, read-out: growth inhibition rate
Protocol: The compounds were dissolved in dimethyl sulfoxide to prepare a chemical agent solution.
A mixture of the prescribed concentration of the chemical agent solution, cucumber anthracnose pathogen (Colletotrichum lagenarium) conidia, and Vogel medium was prepared on a microplate and incubated at 20° C. in the dark for 7 days.
Each expected value was calculated using Colby's equation:
[formula] • where E represents the expected value of the growth inhibition rate (%), M represents the growth inhibition rate (%) when the component (I) is used alone, and N represents the growth inhibition rate (%) when the component (II) is used alone.

[3] = Table 19, component (II) alone (component (I): None): Ipflufenoquin 0.000026, Iminoctadine trialbesilate 0.0032, Cyflufenamid 10, Cyprodinil 0.00013, Potassium bicarbonate 0.08, Thiophanate-methyl 0.08, Picarbutrazox 0.016, Fludioxonil 0.0032, Florylpicoxamid 0.0032, Metyltetraprole 0.08, Mefentrifluconazole 0.4 ppm
[4] = Table 20, component (II) alone (component (I): None): Ipflufenoquin 0.00064, Iminoctadine trialbesilate 0.0032, Cyflufenamid 10, Cyprodinil 0.00013, Potassium bicarbonate 0.08, Thiophanate-methyl 0.4, Picarbutrazox 0.016, Fludioxonil 0.0032, Florylpicoxamid 0.0032, Metyltetraprole 0.08, Mefentrifluconazole 0.4 ppm
[5] = Table 21, component (II) alone (component (I): None): Ipflufenoquin 0.00064, Iminoctadine trialbesilate 0.0032, Cyflufenamid 10, Cyprodinil 0.00013, Potassium bicarbonate 0.08, Thiophanate-methyl 0.4, Picarbutrazox 0.00064, Fludioxonil 0.0032, Florylpicoxamid 0.0032, Metyltetraprole 0.08, Mefentrifluconazole 0.4 ppm
[6] = Table 22, component (II) alone (component (I): None): Ipflufenoquin 0.00064, Iminoctadine trialbesilate 0.0032, Cyflufenamid 10, Cyprodinil 0.00013, Potassium bicarbonate 0.08, Thiophanate-methyl 0.4, Picarbutrazox 0.00064, Fludioxonil 0.0032, Florylpicoxamid 0.0032, Metyltetraprole 0.08, Mefentrifluconazole 0.4 ppm
[7] = Table 23, component (II) alone (component (I): None): Ipflufenoquin 0.00064, Iminoctadine trialbesilate 0.0032, Cyflufenamid 10, Cyprodinil 0.000026, Potassium bicarbonate 0.08, Thiophanate-methyl 0.4, Picarbutrazox 0.00064, Fludioxonil 0.00064, Florylpicoxamid 0.0032, Metyltetraprole 0.08, Mefentrifluconazole 0.4 ppm
[8] = Table 24, component (II) alone (component (I): None): Ipflufenoquin 0.00064, Iminoctadine trialbesilate 0.0032, Cyflufenamid 10, Cyprodinil 0.00013, Potassium bicarbonate 0.08, Thiophanate-methyl 0.4, Picarbutrazox 0.00064, Fludioxonil 0.00013, Florylpicoxamid 0.0032, Metyltetraprole 0.08, Mefentrifluconazole 0.4 ppm
[9] = Table 14, component (II) alone (component (I): None): Inpyrfluxam 0.00025, Chlorothalonil 0.006, Thiophanate-methyl 0.0001, Tebuconazole 0.000025, Trifloxystrobin 0.0001, Fluazinam 0.006, Prothioconazole 0.000025, Florylpicoxamid 0.0001, Metominostrobin 0.0004 ppm
[10] = Table 16, component (II) alone (component (I): None): Inpyrfluxam 0.000025, Chlorothalonil 0.006, Thiophanate-methyl 0.0001, Tebuconazole 0.000025, Trifloxystrobin 0.0001, Fluazinam 0.006, Prothioconazole 0.000025, Florylpicoxamid 0.0001, Metominostrobin 0.0004 ppm
[11] = Table 17, component (II) alone (component (I): None): Inpyrfluxam 0.000026, Chlorothalonil 0.02, Thiophanate-methyl 0.0004, Tebuconazole 0.0001, Trifloxystrobin 0.0001, Fluazinam 0.006, Prothioconazole 0.000025, Florylpicoxamid 0.0001, Metominostrobin 0.0004 ppm

SMILES	growth inhibition rate [2, 3] [%]	growth inhibition rate [2, 4] [%]	growth inhibition rate [2, 5] [%]	growth inhibition rate [2, 6] [%]	growth inhibition rate [2, 7] [%]	growth inhibition rate [2, 8] [%]	other results
CC(C)ON=C1CN(C(=O)Cc2ccc(-c3noc(C(F)(F)F)n3)cc2)C1 [Compound 7]	–	–	–	–	–	–	control value ([1]; component (I) alone, 0.0063 ppm): 16%; control value ([1]; component (I) alone, 0.025 ppm): 32%; control value ([1]; component (I) alone, 0.1 ppm): 64%; control value ([1]; component (I) alone, 0.4 ppm): 94%
CCON=C1CCN(C(=O)Cc2ccc(-c3noc(C(F)(F)F)n3)cc2)CC1 [Compound 8]	–	–	–	–	–	–	control value ([1]; Compound 8 alone, 0.0063 ppm): 10%; control value ([1]; Compound 8 alone, 0.025 ppm): 16%; control value ([1]; Compound 8 alone, 0.1 ppm): 32%; control value ([1]; Compound 8 alone, 0.4 ppm): 75%; control value ([1]; Compound 8 alone, 1.6 ppm): 93%; inhibition at 0.025 ppm ([2]; Compound 8 alone): 58%; inhibition at 0.1 ppm ([2]; Compound 8 alone): 55%; inhibition at 0.4 ppm ([2]; Compound 8 alone): 85%
CON=C1CCN(C(=O)Cc2ccc(-c3noc(C(F)(F)F)n3)cc2)CC1 [Compound 9]	–	–	–	–	–	–	control value ([1]; Compound 9 alone, 0.0063 ppm): 13%; control value ([1]; Compound 9 alone, 0.025 ppm): 34%; control value ([1]; Compound 9 alone, 0.1 ppm): 49%; control value ([1]; Compound 9 alone, 0.4 ppm): 96%; inhibition at 0.025 ppm ([2]; Compound 9 alone): 42%; inhibition at 0.1 ppm ([2]; Compound 9 alone): 49%; inhibition at 0.4 ppm ([2]; Compound 9 alone): 83%
O=C(Cc1ccc(-c2noc(C(F)(F)F)n2)cc1)N1CCC(=NOCC(F)(F)F)CC1 [Compound 10]	–	–	–	–	–	–	control value ([1]; Compound 10 alone, 0.0063 ppm): 0%; control value ([1]; Compound 10 alone, 0.025 ppm): 27%; control value ([1]; Compound 10 alone, 0.1 ppm): 42%; control value ([1]; Compound 10 alone, 0.4 ppm): 66%; control value ([1]; Compound 10 alone, 1.6 ppm): 94%; inhibition at 0.025 ppm ([2]; Compound 10 alone): 63%; inhibition at 0.1 ppm ([2]; Compound 10 alone): 52%; inhibition at 0.4 ppm ([2]; Compound 10 alone): 96%
CC(C)ON=C1CCN(C(=O)Cc2ccc(-c3noc(C(F)(F)F)n3)cc2)CC1 [Compound 11]	–	–	–	–	–	–	control value ([1]; Compound 11 alone, 0.0063 ppm): 6%; control value ([1]; Compound 11 alone, 0.025 ppm): 15%; control value ([1]; Compound 11 alone, 0.1 ppm): 52%; control value ([1]; Compound 11 alone, 0.4 ppm): 70%; control value ([1]; Compound 11 alone, 1.6 ppm): 84%
O=C(Cc1ccc(-c2noc(C(F)(F)F)n2)cc1)N1CCC(=NO)CC1 [Compound 12]	–	–	–	–	–	–	control value ([1]; Compound 12 alone, 0.0063 ppm): 21%; control value ([1]; Compound 12 alone, 0.025 ppm): 33%; control value ([1]; Compound 12 alone, 0.1 ppm): 64%; control value ([1]; Compound 12 alone, 0.4 ppm): 92%
O=C(Cc1ccccc1)N/C(=N\OCC1CC1)c1c(C(F)(F)F)ccc(F)c1F [Cyflufenamid]	64	64	64	64	64	64	–
Cc1cc(C2CC2)nc(Nc2ccccc2)n1 [Cyprodinil]	12	12	12	12	0	12	–
N#Cc1c[nH]cc1-c1cccc2c1OC(F)(F)O2 [Fludioxonil]	64	64	64	64	0	0	–
CCCCCCCCCCCCc1ccc(S(=O)(=O)O)cc1.CCCCCCCCCCCCc1ccc(S(=O)(=O)O)cc1.CCCCCCCCCCCCc1ccc(S(=O)(=O)O)cc1.NC(N)=NCCCCCCCCNCCCCCCCCN=C(N)N [Iminoctadine trialbesilate]	22	22	22	22	22	22	–
CC(O)(Cn1cncn1)c1ccc(Oc2ccc(Cl)cc2)cc1C(F)(F)F (stereo not drawn) [Mefentrifluconazole]	64	64	64	64	64	64	–
CNC(=O)/C(=N/OC)c1ccccc1Oc1ccccc1 [Metominostrobin]	–	–	–	–	–	–	control value [1, 9]: 27%; control value [1, 10]: 27%; control value [1, 11]: 27%
Cc1cccc(-n2nnn(C)c2=O)c1COc1ccn(-c2ccc(Cl)cc2)n1 [Metyltetraprole]	77	77	77	77	77	77	–
Cn1nnnc1/C(=N\OCc1cccc(NC(=O)OC(C)(C)C)n1)c1ccccc1 [Picarbutrazox]	87	87	0	0	0	0	–
O=C([O-])O.[K+] [Potassium bicarbonate]	53	53	53	53	53	53	–
COC(=O)NC(=S)Nc1ccccc1NC(=S)NC(=O)OC [Thiophanate-methyl]	0	0	0	0	0	0	control value [1, 9]: 27%; control value [1, 10]: 27%; control value [1, 11]: 66%
